Values quoted from earlier work, collected in patent US20060093571A1, “Hair and skin protecting compositions based on esters or ethers of betulin” (priority 2004, published 2006).

Assays:
[1] = biological target: T1, elastase (Homo sapiens, UniProt P08246); conditions: known from literature
T1 sequence (P08246 30-247 limits assumed): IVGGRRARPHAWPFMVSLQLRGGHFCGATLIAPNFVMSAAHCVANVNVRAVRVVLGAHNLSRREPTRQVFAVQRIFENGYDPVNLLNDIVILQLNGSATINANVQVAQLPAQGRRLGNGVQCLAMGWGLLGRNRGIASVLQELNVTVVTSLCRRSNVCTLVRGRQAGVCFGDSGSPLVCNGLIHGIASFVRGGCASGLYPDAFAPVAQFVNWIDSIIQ

| SMILES | inhibition of enzymatic activity of elastase [1] | solubility in polar and non-polar solvents |
| --- | --- | --- |
| C=C(C)[C@@H]1CC[C@]2(CO)CC[C@]3(C)[C@H](CC[C@@H]4[C@@]5(C)CC[C@H](O)C(C)(C)[C@@H]5CC[C@]43C)[C@@H]12 [Betulin] | inhibit | poor solubility |
| C=C(C)[C@@H]1CC[C@]2(C(=O)O)CC[C@]3(C)[C@H](CC[C@@H]4[C@@]5(C)CC[C@H](O)C(C)(C)[C@@H]5CC[C@]43C)[C@@H]12 [betulinic acid] | – | poor solubility |
| CC1(C)CC[C@]2(C(=O)O)CC[C@]3(C)C(=CC[C@@H]4[C@@]5(C)CC[C@H](O)C(C)(C)[C@@H]5CC[C@]43C)[C@@H]2C1 [oleanolic acid] | inhibit | poor solubility |
| C[C@H]1[C@H](C)CC[C@]2(C(=O)O)CC[C@]3(C)C(=CC[C@@H]4[C@@]5(C)CC[C@H](O)C(C)(C)[C@@H]5CC[C@]43C)[C@H]12 [ursolic acid] | inhibit | poor solubility |
